Melting point data for 88 compounds are collected here from a melting point compilation (Tetko et al.; mined from patent text by program, amines drawn as free bases though some values may be those of a salt).

What is called melting point is the temperature, or range, at which the solid turns liquid.

The compound `Cc1cc2c(cc1N1CCCC1)OC(=O)C2C` (stereo not drawn) gave a melting point of 67 to 69 °C.

For the compound `O=C(O)CCCNC(=O)CC1=C(n2nc(-c3c(-c4ccccc4)nn4ccccc34)ccc2=O)CCCC1`, the melting point was in the range of 92.5 to 93 °C.

`c1ccc2c(c1)N=C(N1CCNCC1)c1ccccc1S2`: the melting point is 66 to 69 °C.

As for `Nc1nc2ccccc2c2c1nc(CO)n2CC1(O)CCOCC1`, the melting point is more than 250 °C.

In turn, `O=C(OCc1ccccc1)N1CCN(c2ccc(-c3ccnc(Nc4ccc5[nH]nnc5c4)n3)cn2)CC1` had a melting point of 247 to 249 °C.

As for `O=[N+]([O-])c1cnc(-c2nc3ccccc3[nH]2)n1CCO`, the melting point fell in the range of 217 to 219 °C.

In the case of `COc1cc(C(=N)NO)ccc1-c1cc(-c2ccc(C(=N)NO)cc2OC)on1`, the melting point lay in the range of 203 to 204 °C.

As for `O=C(Nc1cc(OCCCO/N=C/c2cc(C(F)(F)F)cc(C(F)(F)F)c2)ccc1C(=O)O)c1ccc(OC(F)(F)F)cc1`, the melting point is 184 to 186 °C.

`CCC1(C)COP(=O)(Cc2ccc(N)cc2)OC1` (stereo not drawn) gave a melting point of 130 to 131 °C.

Consider `CCCCCCCCCCCCCCCC(=O)OCC(CO)OC(=O)CCCCCCCCCCCCCCC` (stereo not drawn), for which the melting point was in the range of 67 to 68 °C.

As for `CC(=O)Nc1cc2c(cc1[N+](=O)[O-])OC(C)O2` (stereo not drawn), the melting point is 112 to 113 °C.

The compound `Cc1sc2cc(CCO)ccc2c1C(=O)O` came in with a melting point of 166 to 169 °C.

As for `CNc1nc(C2C(=O)Nc3ccc(C(F)(F)F)cc32)c2cn(C3CCCC3)nc2n1` (stereo not drawn), the melting point is more than 300 °C.

For the compound `C[C@@H]1N=C(c2ccccc2Cl)c2ccsc2NC1=O`, the melting point amounted to 200 °C.

As for `Cc1nc(CO)n(COCc2ccccc2)c1Sc1ccccc1`, the melting point lay in the range of 87 to 88 °C.

Turning to `c1ccc(-c2ncc(-c3ccc4cc(OCc5nnn[nH]5)ccc4c3)o2)cc1`, the melting point lay within 239 to 241 °C.

Regarding `CCN(CC)C(=O)CN1C(=O)C(NC(=O)Nc2ccc(Cl)cc2)N=C(c2ccccc2)c2ccccc21` (stereo not drawn), the melting point is 284 to 285 °C.

`CCOC(=O)CN(C(=S)Nc1cc(Cl)ccc1C)c1ccccc1` displayed a melting point of 148 to 150 °C.

The compound `Nc1nc(COc2ccc(Cl)c(Cl)c2)nc2nccnc12` gave a melting point of 261 to 263 °C.

As to `NS(=O)(=O)c1c(-c2ccccc2)sc2ccccc12`, the melting point was in the range of 185 to 186 °C.

For the compound `Cc1cc(CC(=O)O)[nH]c1C(=O)c1ccccc1`, the melting point lay in the range of 167 to 168 °C.

In turn, `O=C1NC(=O)c2c1c(-c1ccccc1Cl)cc1c2ccn1CCN1CCCC1` displayed a melting point of 208 to 209 °C.

With `CC(=O)Nc1c(C)nn(C)c1C`, the melting point lay within 118 to 119 °C.

The compound `N[C@@H](Cc1ccc(C(F)(F)F)c(F)c1)[C@H](O)c1ccc(F)cc1` (racemic) registered a melting point of 86 to 87 °C.

In turn, `CCOc1c(/C=C/c2ccc(NS(C)(=O)=O)cc2)cc(-n2ccc(=O)[nH]c2=O)cc1C(C)(C)C` came in with a melting point of 265 to 266 °C.

`NC(=NO)c1nn([C@@H]2O[C@H](CO)[C@@H](O)[C@H]2O)c2ncnc(N)c12` showed a melting point of 242 to 244 °C.

The compound `CCCCCCCCS(=O)c1ccc(CC(N)(CO)CO)cc1` (stereo not drawn) displayed a melting point of 80 to 82 °C.

As to `CC1CC(C(=O)O)CCN1C(=O)OC(C)(C)C` (stereo not drawn), the melting point fell in the range of 109 to 112 °C.

With `CCCCOC(=O)c1cc2c(cn1)[nH]c1ccccc12`, the melting point lay within 211 to 212 °C.

In turn, `OCC1OC(n2cnc3c(NCCc4c[nH]c5ccccc45)ncnc32)C(O)C1O` (stereo not drawn) had a melting point of 187 °C.

In turn, `O=C1c2ccccc2C(OCC2CO2)N1c1ccccc1` (stereo not drawn) came in with a melting point of 76 °C.

Compound `CC(=O)Oc1ccc(Cl)cc1C(=O)Cl` showed a melting point of 35 to 38 °C.

`CCCCCCCCCCCCOCC1CN(c2cc3c(cc2F)c(=O)c(C(=O)O)cn3CC)CCN1` (stereo not drawn): the melting point lay within 125 to 127 °C.

`CC(C)c1ccc(NC(=O)C2CCCc3ccccc32)cc1` (stereo not drawn) gave a melting point of 163 °C.

Compound `O=C(O)c1cccc(-c2cnn3c(O)ncnc23)c1` yielded a melting point of more than 300 °C.

`O=C1C(=O)N(Cc2ccc([N+](=O)[O-])cc2)CCN1Cc1ccc([N+](=O)[O-])cc1` registered a melting point of 257 to 260 °C.

In turn, `CCCS(=O)(=O)c1cccnc1S(N)(=O)=O` displayed a melting point of 153 to 157 °C.

Compound `Cc1ccccc1C(=O)Nc1ccc(C(=O)N2CCS(=O)c3ccccc32)cc1` (stereo not drawn) returned a melting point of 240 to 241 °C.

`O=C(O)c1ccc(-c2c[nH]c(=O)cn2)cc1` showed a melting point of more than 300 °C.

`CCOC(=O)c1cnc2c(NC(=O)c3c(Cl)cccc3Cl)cccc2c1CSc1ccncc1` yielded a melting point of 179 to 181 °C.

In the case of `Cc1cc(Oc2nc(-c3ccccc3)ns2)c(C)cc1N=CN(C)C`, the melting point lay in the range of 100 to 105 °C.

`O=C1C(CCO)Oc2cc([N+](=O)[O-])ccc2N1Cc1ccccc1` (stereo not drawn) displayed a melting point of 102 to 105 °C.

Take `CN(C)C1CCN(C(=O)c2ccc(-c3[nH]nc4c3C(=O)c3c(NC(=O)NN5CCOCC5)cccc3-4)s2)C1` (stereo not drawn): the melting point is 216 to 217 °C.

Consider `Cc1cc(C#N)ccc1-c1ccc(O)cc1`, for which the melting point is 136 to 138 °C.

Take `CN(NCc1ccccc1)c1cnn(-c2cccc(C(F)(F)F)c2)c(=O)c1`: the melting point lay within 89 to 90 °C.

Regarding `COC(=O)C[C@H]1C[C@H](C(=O)O)Nc2cc(Cl)cc(Cl)c21` (relative stereo), the melting point was in the range of 181 to 182 °C.

In the case of `COc1cc(OC(=O)c2ccc(OC)c(C34CC5CC(CC(C5)C3)C4)c2)ccc1C(=O)O`, the melting point lay in the range of 199 to 200 °C.

Take `COc1cc(N2C(=O)N3CCCCC3C2O)c(F)cc1Cl` (stereo not drawn): the melting point lay within 155 to 157 °C.

For `CC(C)CC(NC(=O)C(Cc1ccccn1)NC(=O)C(Cc1cccc2ccccc12)NC(=O)OCc1ccccc1)C(O)CC(=O)NCCc1ccccn1` (mixture of isomers), the melting point lay in the range of 128 to 133 °C.

The compound `CN(C)c1nc2ccccc2n2cnnc12` had a melting point of 184 to 186 °C.

As for `CC(C)OCCOc1ccc(-c2nc(C(=O)Nc3nccs3)c(-c3ccc(Cl)cc3)[nH]2)cc1`, the melting point is 121 to 125 °C.

In turn, `CC(=O)CCc1ccc(I)cc1` yielded a melting point of 75 to 76 °C.

`N=C(NO)c1ccc(-c2ccc(Br)o2)cc1` registered a melting point of 116 to 117 °C.

In turn, `CCc1c(C(C)C)cc(C(C)C)c(CO)c1-c1ccc(F)cc1` yielded a melting point of 106 to 108 °C.

Compound `O=C(Nc1cc(Cl)cc2c(Cl)ccnc12)c1c(Cl)cccc1Cl` had a melting point of 201 to 205 °C.

For `CCc1nn(C(C)C)c2cc(C(=O)O)ccc12`, the melting point was in the range of 160 to 163 °C.

`Clc1ccc(-c2nc(I)c[nH]2)cc1Cl`: the melting point fell in the range of 206 to 207 °C.

Consider `Cc1noc(-c2cc(O)c(O)c([N+](=O)[O-])c2)n1`, for which the melting point lay within 201 to 202 °C.

`Cc1c[nH]c2c(=O)n(CC(=O)NC3CC(=O)OC3OCc3ccccc3)cnc12` (stereo not drawn) yielded a melting point of 240 to 244 °C.

Compound `Cc1ccc(S(=O)(=O)Oc2ccccc2-c2cc3c(C(N)=O)cccc3[nH]2)cc1` showed a melting point of 135 °C.

In the case of `O=C(c1cc2c([nH]c3ccccc32)s1)N1CCOCC1`, the melting point was 92 to 95 °C.

For the compound `CC(C)COC(=O)Nc1nc(N2CC=CCC2)nc2nc(=O)on12`, the melting point fell in the range of 210 to 215 °C.

`CCCCCCC(C)(C)c1cc(OCc2ccccc2)c(C2=C(CC#N)CCC(C)C2)c(OCc2ccccc2)c1` (stereo not drawn): the melting point was in the range of 85 to 86 °C.

On to `N#Cc1cccc(C2=Nc3ccc(CCc4ccccc4)cc3NC(=O)C2)c1`, for which the melting point lay in the range of 212 to 214 °C.

`O=Cc1c2ccsc2cc2c1ccc1ccccc12` showed a melting point of 178 to 180 °C.

In turn, `Cc1cc(Nc2ncnc3ccn(CCNC(=O)CS(C)(=O)=O)c23)ccc1Oc1cccc(OC(F)(F)F)c1` gave a melting point of 106 to 108 °C.

Compound `O=C1C(=O)c2ccccc2C2=C1SCC1(CCN(CC3CC3)CC1)O2` gave a melting point of 161 to 164 °C.

Turning to `CNC1=NN(C(=O)c2ccccc2F)C(C)(C)S1`, the melting point lay in the range of 136 to 140 °C.

Regarding `CNCCN1C(=O)[C@H](O)[C@H](c2ccc(OC)cc2)Sc2cc(Cl)ccc21`, the melting point fell in the range of 142 to 145 °C.

Take `CCOC(=O)c1sc2nc(C(C)C)ccc2c1N`: the melting point is 161 to 162 °C.

The compound `Fc1cc(Cl)ccc1-n1nc2c(c1Cl)CSCC2` registered a melting point of 97 to 99 °C.

With `O=C(O)c1cc(-c2ccc3c(c2)CCO3)nn(CC2CC2)c1=O`, the melting point was 160 to 165 °C.

Take `O=c1[nH]c2ccccc2c2c(C(O)CC3CCNCC3)n(-c3ccccc3)nc12` (stereo not drawn): the melting point was in the range of 258 to 261 °C.

The compound `CCCCCCCCOC(=O)CCP(=O)(CCC(N)=O)Cc1cc(C(C)(C)C)c(O)c(C(C)(C)C)c1` (stereo not drawn) yielded a melting point of 154 to 157 °C.

`CCOC(=O)c1c(C)cc2c(c1C)C(=O)O/C2=C\C#N` had a melting point of 108 to 109 °C.

As for `COc1ccc(N2Cc3cnc(Nc4ccccc4)nc3N([C@@H](C)CO)C2=O)cc1`, the melting point lay in the range of 140 to 147 °C.

For `COC(=O)C(=O)c1ccc(OCCOc2ccc(C(F)(F)F)cc2)cc1`, the melting point was in the range of 96 to 98 °C.

Regarding `CCCc1nc(C(=O)C(C)C)c(C#N)n1Cc1ccc(-c2ccccc2-c2nnnn2C(c2ccccc2)(c2ccccc2)c2ccccc2)cc1`, the melting point was in the range of 133 to 134 °C.

The compound `CCCCCCCCCCCCSCCC(=O)OC(CSCCCCCCCCCCCC)CSCCCCCCCCCCCC` returned a melting point of 31 to 32 °C.

For `Cc1ccc(-c2occc2C#N)cc1`, the melting point worked out at 66 °C.

`COC(=O)c1ccc(CC23CCCCN2C(=O)N(c2cc(Cl)cc(Cl)c2)C3=O)cc1` (stereo not drawn) had a melting point of 51 °C.

Compound `C=C1SC(SCc2ccccc2C(=COC)C(=O)OC)=NC1(C)C` had a melting point of 101 °C.

`O=[N+]([O-])c1cc(C2=NOC(c3cc(Cl)cc(Cl)c3)(C(F)(F)F)C2)ccc1-n1cncn1` (stereo not drawn) returned a melting point of 64 to 72 °C.

The compound `O=C(NN=Cc1ccc(Cl)cc1)c1[nH]c2ccccc2c1C(=O)Nc1ccccc1` had a melting point of more than 260 °C.

As to `CC(OCc1ccc(-c2ccccc2)cc1)(C(=O)O)C(F)(F)F` (stereo not drawn), the melting point was 80 to 81 °C.

As to `COc1cc(OC)nc(Oc2ccccc2C(=O)NS(=O)(=O)C(C)C)n1`, the melting point fell in the range of 128 to 130 °C.

Regarding `CCCCc1nc(C(C)(O)CC)c(C#N)[nH]1` (stereo not drawn), the melting point lay within 139 to 142 °C.

In the case of `O=C(Nc1ccccc1)c1ccccn1`, the melting point lay in the range of 75 to 77 °C.
